Reference: patent US20240166636A1, “CRYSTALLINE COMPOUNDS AND METHODS OF MAKING THE SAME” (Epizyme, Inc., priority 2019, published 2024)

How the values were obtained:
Assay type in all cases: physicochemical
[1] = Hygroscopicity (dynamic vapor sorption); conditions: compared to other salt forms of Compound I
Method: Dynamic Vapor Sorption (DVS) was measured on a VTI Model SGA-100 system. Measurement method: The relative humidity (RH) was changed in a controlled fashion, in 5% steps from 5.0% to 95.0% then back to 5.0% using the gravimetric vapor sorption system, and the weight percentage change (wt. %) of the sample at each stage was measured.

[2] = Intrinsic dissolution rate of polymorphs
[3] = Competitive slurry experiments, thermodynamically most stable form; conditions: 50/50% (w/w) mixture of Polymorph A and Polymorph B, slurried for several days, varying water content and temperature
Method: Several slurries were prepared, varying the water content and the temperature. […] As a result, the isolation temperature (e.g. in step b-2) was increased (e.g., from 15° C. to 22° C.) and the water content of the solvent system during the cooling crystallization was reduced (e.g., from 9.7% (v/v) to 9.0% (v/v)).

hygroscopicity [1] | SMILES | Intrinsic Dissolution Rate (IDR) [2] [mg/min/cm^2] | % Rate relative to From A ([2]; IDR relative to Polymorph A) [%] | thermodynamically most stable form as a function of temperature and water content in the solvent [3]
low hygroscopicity | Br.CCN(c1cc(-c2ccc(CN3CCOCC3)cc2)cc(C(=O)NCc2c(C)cc(C)[nH]c2=O)c1C)C1CCOCC1 [Compound I hydrobromide, N-((4,6-dimethyl-2-oxo-1,2-dihydropyridin-3-yl)methyl)-5-(ethyl (tetrahydro-2H-pyran-4-yl)amino)-4-methyl-4′-(morpholinomethyl)-[1,1′-biphenyl]-3-carboxamide hydrobromide] | – | – | –
– | CN(C)CCc1c[nH]c2cccc(OP(=O)(O)O)c12 [Polymorph A] | 7.6 | 100 | stable form at higher temperatures and lower water content
